The kinase profiling compilation of Christmann-Franck et al. (2016)
Where “and” joins values, the source holds several entries; their conditions need not be identical. Equal values may be shown once.

Tests used:
Test in all cases: Caliper, Mobility shift assay off-chip
AXL (human) = AXL (human) (UniProt P30530)
BLK (human) = BLK (human) (UniProt P51451)
CAMK2A (human) = CAMK2A (human) (UniProt Q9UQM7)
CHEK1 (human) = CHEK1 (human) (UniProt O14757)
CLK1 (human) = CLK1 (human) (UniProt P49759)
CSNK1A1 (human) = CSNK1A1 (human) (UniProt P48729)
CSNK2A2 (human) = CSNK2A2 (human) (UniProt P19784)
DYRK1A (human) = DYRK1A (human) (UniProt Q13627)
DYRK2 (human) = DYRK2 (human) (UniProt Q92630)
DYRK3 (human) = DYRK3 (human) (UniProt O43781)
EPHA2 (human) = EPHA2 (human) (UniProt P29317)
EPHB2 (human) = EPHB2 (human) (UniProt P29323)
FGFR3 (human) = FGFR3 (human) (UniProt P22607)
FGR (human) = FGR (human) (UniProt P09769)
FLT4 (human) = FLT4 (human) (UniProt P35916)
GSK3B (human) = GSK3B (human) (UniProt P49841)
INSR (human) = INSR (human) (UniProt P06213)
ITK (human) = ITK (human) (UniProt Q08881)
JAK1 JH1 JH2 (human) = JAK1 JH1 JH2 (human) (UniProt P23458)
LYN (human) = LYN (human) (UniProt P07948)
MARK2 (human) = MARK2 (human) (UniProt Q7KZI7)
NIM1 (human) = NIM1 (human) (UniProt Q8IY84)
NUAK2 (human) = NUAK2 (human) (UniProt Q9H093)
PAK2 (human) = PAK2 (human) (UniProt Q13177)
PAK4 (human) = PAK4 (human) (UniProt O96013)
PLK1 (human) = PLK1 (human) (UniProt P53350)
PRKACA (human) = PRKACA (human) (UniProt P17612)
RPS6KA5 KD1 KD2 (human) = RPS6KA5 KD1 KD2 (human) (UniProt O75582)
SGK1 (human) = SGK1 (human) (UniProt O00141)
SPHK2 (human) = SPHK2 (human) (UniProt Q9NRA0)
SRPK2 (human) = SRPK2 (human) (UniProt P78362)
TSSK3 (human) = TSSK3 (human) (UniProt Q96PN8)
WNK1 (human) = WNK1 (human) (UniProt Q9H4A3)

DYRK2 (human), sequence (Q92630 whole entry, looked up): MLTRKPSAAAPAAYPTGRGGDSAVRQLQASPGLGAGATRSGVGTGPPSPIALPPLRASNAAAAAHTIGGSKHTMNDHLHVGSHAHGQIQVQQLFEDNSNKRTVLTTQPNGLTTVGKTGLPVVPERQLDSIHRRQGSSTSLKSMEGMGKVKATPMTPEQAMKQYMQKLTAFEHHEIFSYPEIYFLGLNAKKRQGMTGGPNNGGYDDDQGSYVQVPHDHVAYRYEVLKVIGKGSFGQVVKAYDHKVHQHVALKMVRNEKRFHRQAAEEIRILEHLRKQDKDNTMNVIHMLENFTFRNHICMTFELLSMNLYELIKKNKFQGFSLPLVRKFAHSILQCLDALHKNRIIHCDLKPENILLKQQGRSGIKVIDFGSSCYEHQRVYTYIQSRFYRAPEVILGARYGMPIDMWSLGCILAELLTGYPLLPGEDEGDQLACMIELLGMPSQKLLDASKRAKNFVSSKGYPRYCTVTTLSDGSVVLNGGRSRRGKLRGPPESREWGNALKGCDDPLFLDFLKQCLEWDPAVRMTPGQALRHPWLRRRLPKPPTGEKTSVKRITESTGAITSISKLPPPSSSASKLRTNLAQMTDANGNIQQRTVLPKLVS
BLK (human), sequence (P51451 whole entry, looked up): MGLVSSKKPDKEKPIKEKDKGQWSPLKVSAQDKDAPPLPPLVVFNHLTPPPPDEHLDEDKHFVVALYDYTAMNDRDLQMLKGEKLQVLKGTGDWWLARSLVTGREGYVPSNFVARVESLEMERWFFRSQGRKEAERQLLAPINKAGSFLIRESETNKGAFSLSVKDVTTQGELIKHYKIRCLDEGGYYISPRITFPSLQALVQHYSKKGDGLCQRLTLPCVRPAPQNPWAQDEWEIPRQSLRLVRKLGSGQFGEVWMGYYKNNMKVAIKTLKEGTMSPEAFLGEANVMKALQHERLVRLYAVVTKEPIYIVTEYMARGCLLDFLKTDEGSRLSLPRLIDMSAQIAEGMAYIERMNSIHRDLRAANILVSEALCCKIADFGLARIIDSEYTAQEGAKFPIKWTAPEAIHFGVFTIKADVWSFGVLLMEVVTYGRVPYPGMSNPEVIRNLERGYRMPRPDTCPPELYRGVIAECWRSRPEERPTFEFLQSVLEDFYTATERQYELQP
NIM1 (human), sequence (Q8IY84 whole entry, looked up): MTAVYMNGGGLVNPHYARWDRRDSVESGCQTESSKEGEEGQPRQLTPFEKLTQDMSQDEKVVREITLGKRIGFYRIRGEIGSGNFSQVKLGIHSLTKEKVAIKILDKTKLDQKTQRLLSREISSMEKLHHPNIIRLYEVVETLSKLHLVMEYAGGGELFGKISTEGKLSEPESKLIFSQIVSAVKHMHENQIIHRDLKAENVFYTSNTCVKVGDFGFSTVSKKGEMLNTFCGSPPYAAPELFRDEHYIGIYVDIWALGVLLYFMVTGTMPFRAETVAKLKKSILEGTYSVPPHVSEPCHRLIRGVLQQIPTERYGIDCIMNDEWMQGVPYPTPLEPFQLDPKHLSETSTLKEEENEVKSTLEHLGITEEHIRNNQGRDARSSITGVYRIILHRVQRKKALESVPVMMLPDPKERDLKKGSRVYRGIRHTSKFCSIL
ITK (human), sequence (Q08881 whole entry, looked up): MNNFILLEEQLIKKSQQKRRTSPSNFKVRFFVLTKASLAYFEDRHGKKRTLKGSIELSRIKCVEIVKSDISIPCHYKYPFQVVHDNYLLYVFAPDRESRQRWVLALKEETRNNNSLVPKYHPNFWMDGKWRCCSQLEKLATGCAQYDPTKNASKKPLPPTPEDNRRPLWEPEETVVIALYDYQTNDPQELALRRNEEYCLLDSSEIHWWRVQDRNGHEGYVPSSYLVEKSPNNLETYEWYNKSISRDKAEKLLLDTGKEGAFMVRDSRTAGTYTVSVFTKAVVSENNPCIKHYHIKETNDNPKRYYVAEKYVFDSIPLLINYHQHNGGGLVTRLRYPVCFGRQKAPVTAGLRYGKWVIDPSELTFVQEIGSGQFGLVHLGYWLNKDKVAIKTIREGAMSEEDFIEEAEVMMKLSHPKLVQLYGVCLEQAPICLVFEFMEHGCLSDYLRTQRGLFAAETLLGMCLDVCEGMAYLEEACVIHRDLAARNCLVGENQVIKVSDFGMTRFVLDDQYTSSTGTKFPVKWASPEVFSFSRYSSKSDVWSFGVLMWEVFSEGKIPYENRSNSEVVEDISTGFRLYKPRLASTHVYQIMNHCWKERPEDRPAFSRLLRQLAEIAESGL
NUAK2 (human), sequence (Q9H093 whole entry, looked up): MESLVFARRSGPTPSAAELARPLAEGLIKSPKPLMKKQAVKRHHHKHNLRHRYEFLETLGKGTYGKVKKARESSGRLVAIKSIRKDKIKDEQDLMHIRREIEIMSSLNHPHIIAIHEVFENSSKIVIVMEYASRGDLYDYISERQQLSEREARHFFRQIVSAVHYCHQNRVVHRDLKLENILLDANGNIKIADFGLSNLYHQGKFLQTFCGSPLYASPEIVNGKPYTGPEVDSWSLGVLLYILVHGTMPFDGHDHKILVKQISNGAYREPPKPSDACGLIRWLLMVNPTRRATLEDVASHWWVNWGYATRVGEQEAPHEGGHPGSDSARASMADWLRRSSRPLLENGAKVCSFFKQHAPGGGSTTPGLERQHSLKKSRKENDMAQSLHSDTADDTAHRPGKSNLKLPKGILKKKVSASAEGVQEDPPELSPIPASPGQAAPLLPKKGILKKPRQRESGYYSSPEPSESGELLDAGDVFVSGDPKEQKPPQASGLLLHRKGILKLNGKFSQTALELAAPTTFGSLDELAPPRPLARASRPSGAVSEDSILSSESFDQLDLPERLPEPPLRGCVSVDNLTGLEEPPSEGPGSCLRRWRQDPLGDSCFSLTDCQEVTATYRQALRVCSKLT
EPHB2 (human), sequence (P29323 whole entry, looked up): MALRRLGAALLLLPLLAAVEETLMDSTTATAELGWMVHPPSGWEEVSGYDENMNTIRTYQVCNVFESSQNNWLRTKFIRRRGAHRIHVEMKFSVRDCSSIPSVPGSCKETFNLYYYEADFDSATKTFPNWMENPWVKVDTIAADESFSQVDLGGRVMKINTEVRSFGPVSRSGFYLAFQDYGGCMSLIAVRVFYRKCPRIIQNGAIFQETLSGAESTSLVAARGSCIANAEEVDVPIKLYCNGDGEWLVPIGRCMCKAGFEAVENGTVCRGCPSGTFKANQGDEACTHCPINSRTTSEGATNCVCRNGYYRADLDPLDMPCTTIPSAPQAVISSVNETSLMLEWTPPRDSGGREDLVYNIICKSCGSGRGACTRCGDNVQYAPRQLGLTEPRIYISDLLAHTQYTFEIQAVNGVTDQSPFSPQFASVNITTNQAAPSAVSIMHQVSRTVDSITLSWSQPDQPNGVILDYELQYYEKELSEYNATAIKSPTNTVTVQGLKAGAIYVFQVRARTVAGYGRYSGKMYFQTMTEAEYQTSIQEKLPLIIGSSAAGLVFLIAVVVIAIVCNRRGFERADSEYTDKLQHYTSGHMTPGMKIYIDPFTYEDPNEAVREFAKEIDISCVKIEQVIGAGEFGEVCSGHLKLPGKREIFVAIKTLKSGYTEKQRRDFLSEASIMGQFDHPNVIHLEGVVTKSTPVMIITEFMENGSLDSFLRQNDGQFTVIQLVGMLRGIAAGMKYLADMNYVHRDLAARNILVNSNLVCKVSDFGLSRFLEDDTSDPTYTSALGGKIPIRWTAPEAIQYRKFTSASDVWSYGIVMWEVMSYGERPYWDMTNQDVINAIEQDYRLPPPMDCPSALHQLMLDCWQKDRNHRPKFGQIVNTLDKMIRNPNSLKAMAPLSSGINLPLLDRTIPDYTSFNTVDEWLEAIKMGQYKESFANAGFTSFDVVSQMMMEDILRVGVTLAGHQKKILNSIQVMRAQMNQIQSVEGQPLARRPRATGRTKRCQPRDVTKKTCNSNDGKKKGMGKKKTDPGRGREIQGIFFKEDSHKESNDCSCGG
PAK4 (human), sequence (O96013 whole entry, looked up): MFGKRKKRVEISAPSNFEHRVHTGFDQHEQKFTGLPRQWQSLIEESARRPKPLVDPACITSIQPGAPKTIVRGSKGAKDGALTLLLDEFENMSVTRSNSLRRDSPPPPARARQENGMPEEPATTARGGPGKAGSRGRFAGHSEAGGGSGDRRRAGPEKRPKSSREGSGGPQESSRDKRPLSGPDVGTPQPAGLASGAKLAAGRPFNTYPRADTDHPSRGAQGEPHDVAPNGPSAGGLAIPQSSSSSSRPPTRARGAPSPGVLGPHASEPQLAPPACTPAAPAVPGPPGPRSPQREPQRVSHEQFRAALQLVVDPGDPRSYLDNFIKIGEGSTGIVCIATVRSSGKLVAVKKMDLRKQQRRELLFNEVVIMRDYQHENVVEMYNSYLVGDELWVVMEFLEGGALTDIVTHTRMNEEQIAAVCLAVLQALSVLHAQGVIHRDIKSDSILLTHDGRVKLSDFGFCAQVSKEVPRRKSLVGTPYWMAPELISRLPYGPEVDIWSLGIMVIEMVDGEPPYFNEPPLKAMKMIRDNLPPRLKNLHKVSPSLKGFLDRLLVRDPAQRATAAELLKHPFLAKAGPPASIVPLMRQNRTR
CSNK2A2 (human), sequence (P19784 whole entry, looked up): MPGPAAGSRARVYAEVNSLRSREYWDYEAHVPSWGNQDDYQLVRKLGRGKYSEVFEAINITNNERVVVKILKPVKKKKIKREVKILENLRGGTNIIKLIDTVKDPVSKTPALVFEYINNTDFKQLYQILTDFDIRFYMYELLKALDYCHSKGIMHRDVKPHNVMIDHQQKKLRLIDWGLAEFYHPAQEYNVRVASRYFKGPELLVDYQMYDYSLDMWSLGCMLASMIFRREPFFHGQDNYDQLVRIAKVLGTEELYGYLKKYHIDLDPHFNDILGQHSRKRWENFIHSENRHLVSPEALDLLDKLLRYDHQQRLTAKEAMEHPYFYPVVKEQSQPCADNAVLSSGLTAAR

Compound: CNC(=O)c1cc(Oc2ccc(NC(=O)Nc3ccc(Cl)c(C(F)(F)F)c3)cc2)ccn1
- inhibition (AXL (human); compound 0.02 µM): -7.4%
- inhibition (AXL (human); compound 0.2 µM): 7.1%
- inhibition (BLK (human); compound 0.02 µM): 1%
- inhibition (BLK (human); compound 0.2 µM): 6.4%
- inhibition (CAMK2A (human); compound 0.02 µM): -2.1%
- inhibition (CAMK2A (human); compound 0.2 µM): 5.8%
- inhibition (CHEK1 (human); compound 0.02 µM): -2.7%
- inhibition (CHEK1 (human); compound 0.2 µM): 5.3%
- inhibition (CLK1 (human); compound 0.02 µM): -7%
- inhibition (CLK1 (human); compound 0.2 µM): 8.1%
- inhibition (CSNK1A1 (human); compound 0.02 µM): -4.6%
- inhibition (CSNK1A1 (human); compound 0.2 µM): -2.9%
- inhibition (CSNK2A2 (human); compound 0.02 µM): -3.5%
- inhibition (CSNK2A2 (human); compound 0.2 µM): 0.9%
- inhibition (DYRK1A (human); compound 0.02 µM): -7.5%
- inhibition (DYRK1A (human); compound 0.2 µM): 3.6%
- inhibition (DYRK2 (human); compound 0.02 µM): -7.8%
- inhibition (DYRK2 (human); compound 0.2 µM): 6.1%
- inhibition (DYRK3 (human); compound 0.02 µM): -5.8%
- inhibition (DYRK3 (human); compound 0.2 µM): 2.1%
- inhibition (EPHA2 (human); compound 0.02 µM): -2.7%
- inhibition (EPHA2 (human); compound 0.2 µM): 9.8%
- inhibition (EPHB2 (human); compound 0.02 µM): -2.9%
- inhibition (EPHB2 (human); compound 0.2 µM): 14.4%
- inhibition (FGFR3 (human); compound 0.02 µM): 5.5%
- inhibition (FGFR3 (human); compound 0.2 µM): 51.7%
- inhibition (FGR (human); compound 0.02 µM): 1.6%
- inhibition (FGR (human); compound 0.2 µM): 14.2%
- inhibition (FLT4 (human); compound 0.02 µM): 61.6%
- inhibition (FLT4 (human); compound 0.2 µM): 98.5%
- inhibition (GSK3B (human); compound 0.02 µM): -6.7%
- inhibition (GSK3B (human); compound 0.2 µM): 2.9%
- inhibition (INSR (human); compound 0.02 µM): -8.9%
- inhibition (INSR (human); compound 0.2 µM): 2.1%
- inhibition (ITK (human); compound 0.02 µM): -2.9%
- inhibition (ITK (human); compound 0.2 µM): 7.5%
- inhibition (JAK1 JH1 JH2 (human); compound 0.02 µM): -1.7%
- inhibition (JAK1 JH1 JH2 (human); compound 0.2 µM): 3.1%
- inhibition (LYN (human); compound 0.02 µM): -5% and -0.3%
- inhibition (LYN (human); compound 0.2 µM): 35.2% and 36.9%
- inhibition (MARK2 (human); compound 0.02 µM): -10.6%
- inhibition (MARK2 (human); compound 0.2 µM): -9.7%
- inhibition (NIM1 (human); compound 0.02 µM): -3.6%
- inhibition (NIM1 (human); compound 0.2 µM): 6.4%
- inhibition (NUAK2 (human); compound 0.02 µM): -6%
- inhibition (NUAK2 (human); compound 0.2 µM): 2.5%
- inhibition (PAK2 (human); compound 0.02 µM): -1.7%
- inhibition (PAK2 (human); compound 0.2 µM): 0.7%
- inhibition (PAK4 (human); compound 0.02 µM): -8%
- inhibition (PAK4 (human); compound 0.2 µM): 4.4%
- inhibition (PLK1 (human); compound 0.02 µM): -3.1%
- inhibition (PLK1 (human); compound 0.2 µM): -3.7%
- inhibition (PRKACA (human); compound 0.02 µM): -4.7%
- inhibition (PRKACA (human); compound 0.2 µM): 0.7%
- inhibition (RPS6KA5 KD1 KD2 (human); compound 0.02 µM): -2.5%
- inhibition (RPS6KA5 KD1 KD2 (human); compound 0.2 µM): 0.1%
- inhibition (SGK1 (human); compound 0.02 µM): -0.6%
- inhibition (SGK1 (human); compound 0.2 µM): 8.5%
- inhibition (SPHK2 (human); compound 0.02 µM): -6%
- inhibition (SPHK2 (human); compound 0.2 µM): 7.1%
- inhibition (SRPK2 (human); compound 0.02 µM): -5.7%
- inhibition (SRPK2 (human); compound 0.2 µM): -6.5%
- inhibition (TSSK3 (human); compound 0.02 µM): 2.7%
- inhibition (TSSK3 (human); compound 0.2 µM): 8.3%
- inhibition (WNK1 (human); compound 0.02 µM): -4.5%
- inhibition (WNK1 (human); compound 0.2 µM): 6.3%

Compound: CCN(CC)CCNC(=O)c1c(C)[nH]c(/C=C2\C(=O)Nc3ccc(F)cc32)c1C
- inhibition (AXL (human); compound 0.2 µM): 96.8%
- inhibition (AXL (human); compound 4.0 µM): 102%
- inhibition (BLK (human); compound 0.2 µM): 79.2%
- inhibition (BLK (human); compound 4.0 µM): 101%
- inhibition (CAMK2A (human); compound 0.2 µM): 24.5%
- inhibition (CAMK2A (human); compound 4.0 µM): 89%
- inhibition (CHEK1 (human); compound 0.2 µM): 59.3%
- inhibition (CHEK1 (human); compound 4.0 µM): 95.2%
- inhibition (CSNK2A2 (human); compound 0.2 µM): 4.5%
- inhibition (CSNK2A2 (human); compound 4.0 µM): 41.2%
- inhibition (DYRK1A (human); compound 0.2 µM): 23%
- inhibition (DYRK1A (human); compound 4.0 µM): 82.1%
- inhibition (DYRK2 (human); compound 0.2 µM): 25%
- inhibition (DYRK2 (human); compound 4.0 µM): 87.4%
- inhibition (DYRK3 (human); compound 0.2 µM): 24.4%
- inhibition (DYRK3 (human); compound 4.0 µM): 81.9%
- inhibition (EPHA2 (human); compound 0.2 µM): -1.9%
- inhibition (EPHA2 (human); compound 4.0 µM): 24.9%
- inhibition (EPHB2 (human); compound 0.2 µM): 22.2%
- inhibition (EPHB2 (human); compound 4.0 µM): 79.1%
- inhibition (FGFR3 (human); compound 0.2 µM): 75%
- inhibition (FGFR3 (human); compound 4.0 µM): 98.4%
- inhibition (FGR (human); compound 0.2 µM): 63.4%
- inhibition (FLT4 (human); compound 0.2 µM): 88.2%
- inhibition (FLT4 (human); compound 4.0 µM): 101%
- inhibition (GSK3B (human); compound 0.2 µM): 1.1%
- inhibition (GSK3B (human); compound 4.0 µM): 23.7%
- inhibition (ITK (human); compound 0.2 µM): 93.3%
- inhibition (ITK (human); compound 4.0 µM): 101%
- inhibition (JAK1 JH1 JH2 (human); compound 0.2 µM): 10.9%
- inhibition (JAK1 JH1 JH2 (human); compound 4.0 µM): 70.4%
- inhibition (LYN (human); compound 0.2 µM): 67.3% and 70.3%
- inhibition (LYN (human); compound 4.0 µM): 98.3% and 99.7%
- inhibition (NIM1 (human); compound 0.2 µM): 17.9%
- inhibition (NIM1 (human); compound 4.0 µM): 67.1%
- inhibition (NUAK2 (human); compound 0.2 µM): 55.7%
- inhibition (NUAK2 (human); compound 4.0 µM): 95.3%
- inhibition (PAK2 (human); compound 0.2 µM): 1.8%
- inhibition (PAK2 (human); compound 4.0 µM): 7.7%
- inhibition (PAK4 (human); compound 0.2 µM): 16.2%
- inhibition (PAK4 (human); compound 4.0 µM): 62.8%
- inhibition (PLK1 (human); compound 0.2 µM): -3.4%
- inhibition (PLK1 (human); compound 4.0 µM): 5.8%
- inhibition (PRKACA (human); compound 0.2 µM): 0.6%
- inhibition (PRKACA (human); compound 4.0 µM): 49%
- inhibition (RPS6KA5 KD1 KD2 (human); compound 0.2 µM): 18.2%
- inhibition (RPS6KA5 KD1 KD2 (human); compound 4.0 µM): 73.3%
- inhibition (SGK1 (human); compound 0.2 µM): 28.6%
- inhibition (SGK1 (human); compound 4.0 µM): 87.8%
- inhibition (SPHK2 (human); compound 0.2 µM): -6.9%
- inhibition (SPHK2 (human); compound 4.0 µM): 4.7%
- inhibition (SRPK2 (human); compound 0.2 µM): -0.5%
- inhibition (SRPK2 (human); compound 4.0 µM): 21.1%
- inhibition (TSSK3 (human); compound 0.2 µM): 2.6%
- inhibition (TSSK3 (human); compound 4.0 µM): -1.3%
- inhibition (WNK1 (human); compound 0.2 µM): 3.2%
- inhibition (WNK1 (human); compound 4.0 µM): 4.9%
